What was measured:
YFV = test: microbe, parasite or virus in culture; assay type: cell-based, YFV strain 17D; conditions: Yellow fever virus, HepG2, 24 h, read-out: YFV / HepG2 EC50
ZIKV = test: microbe, parasite or virus in culture; assay type: cell-based, ZIKV MR766; conditions: Zika virus, HepG2, 24 h, read-out: ZIKV / HepG2 EC50
in vitro [1] = conditions: human, h1 hela cells
HCMV = test: HCMV/HFF antiviral assay; assay type: cell-based; conditions: Human betaherpesvirus 5, HFF
HRV 16 = test: microbe, parasite or virus in culture; assay type: cell-based, Human Rhinovirus 16 strain 11757; conditions: Rhinovirus A, H1-HeLa, 48 h, read-out: HRV / H1 HeLa A16 EC50
RSV A2 = test: microbe, parasite or virus in culture; assay type: cell-based; conditions: human respiratory syncytial virus, HEp-2, 72 h, read-out: RSV A2 / Hep2 EC50
HRV 14 = test: microbe, parasite or virus in culture; assay type: cell-based, Human Rhinovirus 14 strain 1059; conditions: Rhinovirus B, H1-HeLa, 48 h, read-out: HRV / H1 HeLa B 14 EC50
Cytotoxicity, HFF = assay type: cell-based; conditions: human, hff cells; read-out: HCMV/HFF CC50
in vitro [2] = conditions: human, hela-ace2 cells
in vitro [3] = conditions: human, hepg2 cells
DENV-2 = test: microbe, parasite or virus in culture; assay type: cell-based, DENV-2 16681; conditions: Dengue virus, DENV2, HepG2, 24 h, read-out: DENV-2 / HepG2 EC50
SARS-CoV-2 = test: microbe, parasite or virus in culture; assay type: cell-based, SARS-CoV-2 strain USA-WA1/2020; conditions: Severe acute respiratory syndrome coronavirus 2, HeLa-ACE2, 24 h, read-out: SARS-CoV-2 / HeLa-ACE2 EC50
in vitro [4] = conditions: human, hep2 cells
CHIKV = test: microbe, parasite or virus in culture; assay type: cell-based, CHIKV strain 181/25; conditions: Chikungunya virus, HepG2, 24 h, read-out: CHIKV / HepG2 EC50
in vitro [5] = conditions: human, mrc5 cells
in vitro [6] = conditions: human, hct-8 cells
HCoV-OC43 = test: microbe, parasite or virus in culture; assay type: cell-based, Human Coronavirus; conditions: Betacoronavirus 1, OC43, HCT-8, 48 h, read-out: HCoV-OC43/HCT-8 EC50
HCoV-229E = test: microbe, parasite or virus in culture; assay type: cell-based; conditions: Human coronavirus 229E, MRC5, 120 h, read-out: HCoV-229E/MRC5 EC50

For COc1ncnc2c1c(F)cn2[C@@H]1O[C@](F)(CO)[C@@H](O)[C@H]1O [Example 22, (2S,3S,4R,5R)-2-fluoro-5-(5-fluoro-4-methoxy-7H-pyrrolo[2,3-d]pyrimidin-7-yl)-2-(hydroxymethyl)tetrahydrofuran-3,4-diol], which EC50 (YFV) is on record?
The EC50 was 0.1 to 1 µM.

And the EC50 (ZIKV)?
The EC50 was 1 to 10 µM.

What about the CC50 (in vitro [1]) of the same compound?
The CC50 was 10 to 99 µM.

And the EC50 (HCMV)?
The EC50 was 1 to 10 µM.

What about the EC50 (HRV 16) of the same compound?
The EC50 was greater than 10 µM.

What about the EC50 (RSV A2) of the same compound?
Its EC50 is greater than 10 µM.

What about the EC50 (HRV 14) of the same compound?
Its EC50 is greater than 10 µM.

And the CC50 (Cytotoxicity, HFF)?
The CC50 was greater than 99 µM.

And the CC50 at 24 h (in vitro [2])?
The CC50 at 24 h was 1 to 10 µM.

And the CC50 at 72 h (in vitro [3])?
The CC50 at 72 h was 1 to 10 µM.

What about the EC50 (DENV-2) of the same compound?
Its EC50 is 0.1 to 1 µM.

And the EC50 (SARS-CoV-2)?
The EC50 was 1 to 10 µM.

And the CC50 (in vitro [4])?
The CC50 was 10 to 99 µM.

With Nc1nc(F)nc2c1ncn2[C@@H]1O[C@](F)(CO)[C@@H](O)[C@H]1O [Example 31, (2S,3S,4R,5R)-5-(6-amino-2-fluoro-9H-purin-9-yl)-2-fluoro-2-(hydroxymethyl)tetrahydrofuran-3,4-diol] as the compound, how does the CC50 (in vitro [1]) read?
Its CC50 is 1 to 10 µM.

And the EC50 (HRV 16)?
The EC50 was greater than 10 µM.

What about the EC50 (RSV A2) of the same compound?
Its EC50 is greater than 10 µM.

What about the EC50 (HRV 14) of the same compound?
Its EC50 is greater than 10 µM.

And the CC50 at 24 h (in vitro [2])?
Its CC50 at 24 h is 1 to 10 µM.

What about the CC50 at 72 h (in vitro [3]) of the same compound?
Its CC50 at 72 h is less than 1 µM.

What about the EC50 (DENV-2) of the same compound?
The EC50 was 0.1 to 1 µM.

What about the EC50 (SARS-CoV-2) of the same compound?
The EC50 was 1 to 10 µM.

What about the CC50 (in vitro [4]) of the same compound?
Its CC50 is less than 1 µM.

What about the EC50 (CHIKV) of the same compound?
Its EC50 is 0.1 to 1 µM.

Which results are given for N#C[C@]1(CO)O[C@@H](n2ccc3c(N)ncnc32)[C@H](O)[C@@H]1O [Example 32, (3S,4R,5R)-5-(4-amino-7H-pyrrolo[2,3-d]pyrimidin-7-yl)-3,4-dihydroxy-2-(hydroxymethyl)tetrahydrofuran-2-carbonitrile]?
CC50 (in vitro [1]): > 99 µM; EC50 (HRV 16): > 10 µM; EC50 (RSV A2): > 10 µM; EC50 (HRV 14): > 10 µM; CC50 at 24 h (in vitro [2]): > 99 µM; CC50 at 72 h (in vitro [3]): > 99 µM; EC50 (DENV-2): > 10 µM; EC50 (SARS-CoV-2): > 10 µM; CC50 (in vitro [4]): > 99 µM; EC50 (CHIKV): > 10 µM

Which CC50 (in vitro [5]) does the source give for Nc1ncnc2c1c(Cl)cn2[C@@H]1O[C@](F)(CO)[C@@H](O)[C@H]1O [Example 33, (2S,3S,4R,5R)-5-(4-amino-5-chloro-7H-pyrrolo[2,3-d]pyrimidin-7-yl)-2-fluoro-2-(hydroxymethyl)tetrahydrofuran-3,4-diol] here?
Its CC50 is 10 to 99 µM.

What about the CC50 (in vitro [1]) of the same compound?
The CC50 was 1 to 10 µM.

What about the EC50 (HCMV) of the same compound?
Its EC50 is 0.1 to 1 µM.

What about the EC50 (HRV 16) of the same compound?
The EC50 was greater than 10 µM.

What about the EC50 (RSV A2) of the same compound?
Its EC50 is less than 0.1 µM.

And the EC50 (HRV 14)?
The EC50 was greater than 10 µM.

And the CC50 (Cytotoxicity, HFF)?
The CC50 was 10 to 99 µM.

What about the CC50 at 24 h (in vitro [2]) of the same compound?
The CC50 at 24 h was 1 to 10 µM.

And the CC50 at 72 h (in vitro [3])?
Its CC50 at 72 h is less than 1 µM.

And the EC50 (DENV-2)?
The EC50 was less than 0.1 µM.

What about the EC50 (SARS-CoV-2) of the same compound?
The EC50 was less than 0.1 µM.

And the CC50 (in vitro [4])?
Its CC50 is 10 to 99 µM.

And the CC50 (in vitro [6])?
The CC50 was less than 1 µM.

What about the EC50 (HCoV-OC43) of the same compound?
The EC50 was 0.1 to 1 µM.

What about the EC50 (HCoV-229E) of the same compound?
Its EC50 is greater than 10 µM.

For CNc1ncnc2c1c(F)cn2[C@@H]1O[C@](F)(CO)[C@@H](O)[C@H]1O [Example 35, (2S,3S,4R,5R)-2-fluoro-5-(5-fluoro-4-(methylamino)-7H-pyrrolo[2,3-d]pyrimidin-7-yl)-2-(hydroxymethyl)tetrahydrofuran-3,4-diol], which EC50 (YFV) is on record?
Its EC50 is 1 to 10 µM.

And the EC50 (ZIKV)?
Its EC50 is greater than 10 µM.

What about the CC50 (in vitro [1]) of the same compound?
Its CC50 is 10 to 99 µM.

What about the EC50 (RSV A2) of the same compound?
Its EC50 is greater than 10 µM.

And the EC50 (HRV 14)?
The EC50 was greater than 10 µM.

What about the CC50 at 24 h (in vitro [2]) of the same compound?
The CC50 at 24 h was greater than 99 µM.

What about the CC50 at 72 h (in vitro [3]) of the same compound?
Its CC50 at 72 h is 10 to 99 µM.

What about the EC50 (DENV-2) of the same compound?
The EC50 was greater than 10 µM.

What about the EC50 (SARS-CoV-2) of the same compound?
Its EC50 is greater than 10 µM.

And the CC50 (in vitro [4])?
The CC50 was 10 to 99 µM.

What does the source list for Nc1nc2c(ncn2[C@H]2C[C@H](O)[C@@](F)(CO)O2)c(=O)[nH]1 [Example 40, 2-amino-9-((2R,4S,5S)-5-fluoro-4-hydroxy-5-(hydroxymethyl)tetrahydrofuran-2-yl)-1,9-dihydro-6H-purin-6-one]?
EC50 (YFV): > 10 µM; EC50 (ZIKV): > 10 µM; CC50 at 24 h (in vitro [2]): > 99 µM; CC50 at 72 h (in vitro [3]): > 99 µM; EC50 (DENV-2): > 10 µM; EC50 (SARS-CoV-2): > 10 µM

What does the source list for CC(C)OC(=O)[C@H](C)N[P@](=O)(OC[C@@]1(F)O[C@@H](n2ccc3c(N)ncnc32)[C@H](O)[C@@H]1O)Oc1ccccc1 [Example 48, isopropyl ((S)-(((2S,3S,4R,5R)-5-(4-amino-7H-pyrrolo[2,3-d]pyrimidin-7-yl)-2-fluoro-3,4-dihydroxytetrahydrofuran-2-yl)methoxy)(phenoxy)phosphoryl)-L-alaninate]?
EC50 (YFV): 1 to 10 µM; EC50 (ZIKV): 1 to 10 µM; CC50 (in vitro [1]): 10 to 99 µM; EC50 (HRV 16): 1 to 10 µM; EC50 (HRV 14): 1 to 10 µM; CC50 at 24 h (in vitro [2]): 10 to 99 µM; CC50 at 72 h (in vitro [3]): 10 to 99 µM; EC50 (DENV-2): 0.1 to 1 µM; EC50 (SARS-CoV-2): 1 to 10 µM

From patent US20260325561A1, “4'-SUBSTITUTED NUCLEOSIDES AND NUCLEOTIDES AS ANTIVIRAL AGENTS” (THE SCRIPPS RESEARCH INSTITUTE, priority 2023, published 2026)
